Laboratory results published in ChEMBL document CHEMBL6083269, “Design, synthesis, in vitro and in vivo trypanosomaticidal efficacy of novel 5-nitroindolylazines” (Eur J Med Chem, 2024).

How the values were obtained:
[1] = Cytotoxicity against green monkey Vero cells incubated for 48 hrs by resazurin dye based assay; assay type: toxicity, cell-based; conditions: African green monkey (Chlorocebus sabaeus)
[2] = Cytotoxicity against human […]-differentiated THP-1 cells incubated for 72 hrs by resazurin dye based assay; assay type: toxicity, cell-based
Leishmania donovani [3] = assay: Antileishmanial activity against Leishmania donovani 9515 (MHOM/IN/95/9151) promastigote incubated for 48 hrs by resazurin dye based plate reader assay; assay type: functional, organism-based
[4] = Selectivity index, ratio of IC50 for african green monkey Vero cells to IC50 for Leishmania donovani 9515 (MHOM/IN/95/9151) promastigote; assay type: toxicity, cell-based; conditions: read-out: Ratio IC50
[5] = Selectivity index, ratio of IC50 for human THP-1 cells to IC50 for Leishmania donovani 9515 (MHOM/IN/95/9151) promastigote; assay type: toxicity, cell-based; conditions: read-out: Ratio IC50
Leishmania donovani [6] = assay: Antileishmanial activity against Leishmania donovani 9515 (MHOM/IN/95/9151) amastigote infected in THP-1 cells assessed as inhibition of parasite growth incubated for 72 hrs by resazurin dye based plate reader assay; assay type: functional, organism-based; conditions: THP-1, 72 h
[7] = Selectivity index, ratio of IC50 for african green monkey Vero cells to IC50 for static antileishmanial activity against Leishmania donovani 9515 (MHOM/IN/95/9151) amastigote; assay type: toxicity, cell-based; conditions: read-out: Ratio IC50
[8] = Selectivity index, ratio of IC50 for human THP-1 cells to IC50 for static antileishmanial activity against Leishmania donovani 9515 (MHOM/IN/95/9151) amastigote; assay type: toxicity, cell-based; conditions: read-out: Ratio IC50
Leishmania donovani [9] = assay: Leishmanicidal activity against Leishmania donovani 9515 (MHOM/IN/95/9151) amastigote infected in THP-1 cells incubated for 72 hrs by resazurin dye based plate reader assay; assay type: functional, organism-based; conditions: THP-1, 72 h
[10] = Selectivity index, ratio of IC50 for african green monkey Vero cells to IC50 for leishmanicidal activity against Leishmania donovani 9515 (MHOM/IN/95/9151) amastigote; assay type: toxicity, cell-based; conditions: read-out: Ratio IC50
[11] = Selectivity index, ratio of IC50 for human THP-1 cells to IC50 for leishmanicidal activity against Leishmania donovani 9515 (MHOM/IN/95/9151) amastigote; assay type: toxicity, cell-based; conditions: read-out: Ratio IC50
[12] = Cytotoxicity against MDBK cells incubated for 72 hrs by CCK8 assay; assay type: toxicity, cell-based, Bos taurus; conditions: cattle; for CC50 at 72 h: MDBK cells; for CC50: mdbk, 72 h
[13] = tested on: Trypanosoma brucei gambiense; assay: Trypanocidal activity against Trypanosoma brucei gambiense IL1922 incubated for 72 hrs by CellTiter-Glo reagent based […] analysis; assay type: functional, organism-based; conditions: IL1922, 72 h
[14] = tested on: Trypanosoma brucei rhodesiense; assay: Trypanocidal activity against Trypanosoma brucei rhodesiense IL1501 incubated for 72 hrs by CellTiter-Glo reagent based […] analysis; assay type: functional, organism-based; conditions: IL1501, 72 h
[15] = tested on: Trypanosoma brucei brucei; assay: Trypanocidal activity against Trypanosoma brucei brucei GUTat3.1 incubated for 72 hrs by CellTiter-Glo reagent based […] analysis; assay type: functional, organism-based; conditions: GUTat3.1, 72 h
Trypanosoma congolense = assay: Trypanocidal activity against Trypanosoma congolense IL3000 incubated for 72 hrs by CellTiter-Glo reagent based […] analysis; assay type: functional, organism-based; conditions: IL3000, 72 h
Trypanosoma evansi = assay: Trypanocidal activity against Trypanosoma evansi Tansui incubated for 72 hrs by CellTiter-Glo reagent based […] analysis; assay type: functional, organism-based
Trypanosoma equiperdum = assay: Trypanocidal activity against Trypanosoma equiperdum IVM-t1 incubated for 72 hrs by CellTiter-Glo reagent based […] analysis; assay type: functional, organism-based; conditions: IVM-t1, 72 h
[16] = Selectivity index, ratio of CC50 for MDBK to IC50 for Trypanosoma brucei gambiense IL1922; assay type: toxicity, cell-based; conditions: cattle, MDBK cells; read-out: Ratio CC50/IC50
[17] = Selectivity index, ratio of CC50 for MDBK to IC50 for Trypanosoma brucei rhodesiense IL1501; assay type: toxicity, cell-based; conditions: cattle, MDBK cells; read-out: Ratio CC50/IC50
[18] = Selectivity index, ratio of CC50 for MDBK to IC50 for Trypanosoma brucei brucei GUTat3.1; assay type: toxicity, cell-based; conditions: cattle, MDBK cells; read-out: Ratio CC50/IC50
[19] = Selectivity index, ratio of CC50 for MDBK to IC50 for Trypanosoma congolense IL3000; assay type: toxicity, cell-based; conditions: cattle, MDBK cells; read-out: Ratio CC50/IC50
[20] = Selectivity index, ratio of CC50 for MDBK to IC50 for Trypanosoma evansi Tansui; assay type: toxicity, cell-based; conditions: cattle, MDBK cells; read-out: Ratio CC50/IC50
[21] = Selectivity index, ratio of CC50 for MDBK to IC50 for Trypanosoma equiperdum IVM-t1; assay type: toxicity, cell-based; conditions: cattle, MDBK cells; read-out: Ratio CC50/IC50

Structure (SMILES)	IC50 at 48 h [1] [µM]	IC50 at 72 h [2] [µM]	IC50 (Leishmania donovani [3]) [µM]	selectivity ratio [4]	IC50 (Leishmania donovani [6]) [µM]	selectivity ratio [7]	selectivity ratio [8]	IC50 (Leishmania donovani [9]) [µM]	CC50 at 72 h [12] [µM]	IC50 [13] [µM]	IC50 [14] [µM]	IC50 [15] [µM]	IC50 (Trypanosoma congolense) [µM]	IC50 (Trypanosoma evansi) [µM]	IC50 (Trypanosoma equiperdum) [µM]	selectivity ratio [16]	selectivity ratio [17]	selectivity ratio [18]	selectivity ratio [19]	selectivity ratio [21]	further results
C#CCn1cc(/C=N\N=C\c2cccs2)c2cc([N+](=O)[O-])ccc21	10.8	16.6	7.02	2	0.89	12	16	0.67	> 297	14.7	16.3	21.4	3.94	18.5	18.4	20.2	18.3	> 13.9	> 75.4	> 16.2	selectivity ratio [5]: 2; selectivity ratio [10]: 16; selectivity ratio [11]: 25; selectivity ratio [20]: > 16.1
C#CCn1cc(/C=N/N=C\C=C(C)C)c2cc([N+](=O)[O-])ccc21	80.3	92.6	10	8	0.53	152	175	1.03	–	33.4	34.7	37.4	28.3	39.6	27	2.04	1.96	1.82	2.41	2.53	selectivity ratio [5]: 9; selectivity ratio [10]: 78; selectivity ratio [11]: 90; CC50 [12]: > 325 µM; selectivity ratio [20]: 1.72
C#CCn1cc(/C=N\N=C/CCC)c2cc([N+](=O)[O-])ccc21	> 100	43.9	> 10	–	> 10	–	–	> 10	> 338	> 84.4	48.5	> 84.4	> 84.4	> 84.4	> 84.4	–	> 6.96	–	–	–	–
C#CCn1cc(/C=N\N=C\C2CCCCC2)c2cc([N+](=O)[O-])ccc21	> 100	52.9	> 10	–	2.85	> 35	19	> 10	> 297	16.1	19.4	18.6	> 74.3	> 74.3	21.8	> 18.4	> 15.3	> 16	–	> 13.7	–
C#CCn1cc(/C=N\N=C\c2ccc([N+](=O)[O-])cc2)c2cc([N+](=O)[O-])ccc21	27.5	25.7	> 10	–	9.75	3	3	3.91	> 68.2	> 66.7	> 66.7	> 66.7	8.84	> 66.7	> 66.7	–	–	–	> 30.1	–	selectivity ratio [10]: 7; selectivity ratio [11]: 7
C#CCn1cc(/C=N\N=C\c2cnc[nH]2)c2cc([N+](=O)[O-])ccc21	83.2	42.5	> 10	–	> 10	–	–	> 10	> 312	> 78	> 78	> 78	14.8	> 78	> 78	–	–	–	> 21	–	–
C#CCn1cc(\C=N/N=C/C(C)=C\C)c2cc([N+](=O)[O-])ccc21	84.2	> 100	10.5	8	0.32	226	313	1.7	> 281	> 81.2	> 81.2	> 81.2	> 81.2	> 81.2	> 81.2	–	–	–	–	–	selectivity ratio [5]: 10; selectivity ratio [10]: 50; selectivity ratio [11]: > 59
C#CCn1cc(/C=N\N=C/CC)c2cc([N+](=O)[O-])ccc21	> 100	> 100	> 10	–	> 10	–	–	> 10	> 354	51.6	75.1	78.8	> 88.6	55.4	56.1	> 6.86	> 4.72	> 4.49	–	> 6.3	selectivity ratio [20]: > 6.39
C#CCn1cc(/C=N\N=C\C(C)=Cc2ccccc2)c2cc([N+](=O)[O-])ccc21	9.59	> 100	7.88	1	> 10	–	–	> 10	–	27.2	9.86	26.7	> 9.79	22.7	29	0.34	0.93	0.34	0.94	0.32	selectivity ratio [5]: 13; CC50 [12]: 226 µM; selectivity ratio [20]: 0.41
